Reference: patent US11932653B2, “Lycorine derivative, and pharmaceutical composition and use thereof” (priority 2018, dated 2024)

What was measured:
EV71 = experiment: In-vitro experiment against EV71 virus (RD cells, MTT); assay type: cell-based; details: for EC50: Enterovirus A, RD cells infected with 100x TCID50 EV71, compound added after 2 hrs, MTT at 48 hrs; for SI: selectivity index, EV71, RD cells
Description: (§1) RD cells were seeded into a 96-well plate (10^4 cells/well), and infected with 100× TCID50 of EV71 viruses. After 2 hrs, various concentrations of the derivative were added. […] Uninfected cells were also given various concentrations of the derivative to determine the CC50.

[1] = Cytotoxicity in uninfected RD cells (CC50, MTT); assay type: cell-based; details: human, Table 1
Description: as §1
(§2) RD cells were seeded into a 96-well plate (10^4 cells/well), and infected with 100×TCID50 of CAV16 viruses. After 2 hrs, various concentrations of the derivative were added. […] Uninfected cells were also given various concentrations of the derivative to determine the CC50.

CAV16 = experiment: In-vitro experiment against Coxsackievirus A16 (CAV16) (RD cells, MTT); assay type: cell-based, Coxsackievirus Virus A16 (CAV16)
Description: as §2

[2] = Toxicity test in ICR mice after single administration by intraperitoneal injection; assay type: in vivo
Description: 22 10-day-old ICR mice were randomly assigned to 17 groups, and given Compound 6 once by intraperitoneal injection at a dosage of 0.625, 1.25, 2.5, 5, 10, 20, 40, 80, 100, 160, 200, 250, 300, 470, 500, 1000, or 2000 mg/kg. 1-2 animals were included in each group, and the male and female mice were administered alternately. […] The dead animals are necropsied and the changes in main organs were observed. On day 1 after administration, the weight of the animals in the 160 mg/kg group is decreases by 0.3 g, and the weight of the animals in the 0.625, 1.25, 2.5, 5, 10, 20, 40, 80, 100 mg/kg group is increased, compared to the day of administration. Under the conditions in this experiment, ICR mice were given Compound 6 once by intraperitoneal injection. The minimum lethal dose was 200 mg/kg and the maximum tolerated dose was 160 mg/kg.
24 10-day-old ICR mice were randomly assigned to 19 groups, and given Compound 6 once by intraperitoneal injection at a dosage of 0.625, 1.25, 2.5, 5, 10, 20, 40, 60, 80, 100, 120, 136, 160, 270, 320, 500, 690, 1000, or 2000 mg/kg. 1-2 animals were included in each group, and the male and female mice were administered alternately. […] The dead animals are necropsied and the changes in main organs were observed. […] Under the conditions in this experiment, ICR mice were given Compound 20 once by intraperitoneal injection.

[3] = tested on: Salmonella typhimurium TA100; experiment: Test of reverse mutation in histidine-deficient Salmonella typhimurium, strain TA100; assay type: cell-based; details: for Number of colonies TA100(−S9): solvent control 165.3 ± 10.7; for Number of colonies TA100(+S9): solvent control 170.7 ± 10.9
Description: (§3) The mutagenic effect of Compound 6 on the strains TA100 and TA102 was detected by determining the reverse mutation in histidine-deficient Salmonella typhimurium by pre-loaded culture dish method. The dosage of Compound 6 is 8, 40, 200, 1000, or 5000 μg/dish under activated and non-activated conditions, and the mutagenic effects on TA100 and TA102 were tested.

[4] = tested on: Salmonella typhimurium TA102; experiment: Test of reverse mutation in histidine-deficient Salmonella typhimurium, strain TA102; assay type: cell-based; details: for Number of colonies TA102(−S9): solvent control 225.0 ± 7.5; for Number of colonies TA102(+S9): solvent control 236.5 ± 5.0
Description: as §3

[5] = 8-5000 μg/dish, activated and non-activated conditions

Q: With `O=C(CSc1ccccc1)OC1C(O)C=C2CCN3Cc4cc5c(cc4C1C23)OCO5` (stereo not shown) [Compound 2, 1-phenylthioacetyl-lycorine] as the compound, how does the EC50 (EV71) read?
A: Its EC50 is 1.65 µM.

Q: What about the SI (EV71) of the same compound?
A: Its SI is 69.35.

Q: What about the CC50 at 48 h [1] of the same compound?
A: The CC50 at 48 h was 114 µM.

Q: What about the EC50 (CAV16; Coxsackievirus, RD cells infected with 100x TCID50 CAV16, compound added after 2 hrs, MTT at 48 hrs) of the same compound?
A: The EC50 was 0.57 µM.

Q: And the SI (CAV16; selectivity index, CAV16, RD cells)?
A: Its SI is 200.73.

Q: For `O=C(COc1ccc(Cl)cc1)OC1C(O)C=C2CCN3Cc4cc5c(cc4C1C23)OCO5` (stereo not shown) [Compound 3, 1-(4-chloro-phenoxyacetyl)-lycorine], which EC50 (EV71) is on record?
A: The EC50 was 1.28 µM.

Q: And the SI (EV71)?
A: Its SI is 139.85.

Q: What about the CC50 at 48 h [1] of the same compound?
A: Its CC50 at 48 h is 154 µM.

Q: Which EC50 (EV71) does the source give for `O=C(CCCOc1ccccc1)OC1C(O)C=C2CCN3Cc4cc5c(cc4C1C23)OCO5` (stereo not shown) [Compound 4, 1-(4-phenoxybutyryl)-lycorine] here?
A: Its EC50 is 1.76 µM.

Q: What about the SI (EV71) of the same compound?
A: Its SI is 84.84.

Q: And the CC50 at 48 h [1]?
A: Its CC50 at 48 h is 150 µM.

Q: Which EC50 (EV71) does the source give for `O=C(CCOc1ccccc1)OC1C(O)C=C2CCN3Cc4cc5c(cc4C1C23)OCO5` (stereo not shown) [Compound 5, 1-(3-phenoxypropionyl)-lycorine] here?
A: The EC50 was 1.45 µM.

Q: And the SI (EV71)?
A: Its SI is 92.43.

Q: What about the CC50 at 48 h [1] of the same compound?
A: Its CC50 at 48 h is 134 µM.

Q: Which EC50 (EV71) does the source give for `O=C(COc1ccc(F)cc1)OC1C(O)C=C2CCN3Cc4cc5c(cc4C1C23)OCO5` (stereo not shown) [Compound 6, 1-(4-fluoro-phenoxyacetyl)-lycorine] here?
A: The EC50 was 1.27 µM.

Q: What about the SI (EV71) of the same compound?
A: Its SI is 103.30.

Q: What about the CC50 at 48 h [1] of the same compound?
A: The CC50 at 48 h was 131 µM.

Q: And the minimum lethal dose ([2]; 10-day-old ICR mice, single intraperitoneal injection, observed 14 days)?
A: Its minimum lethal dose is 200 mg/kg.

Q: And the MTD at 14 days ([2]; both sexes, ICR, mouse, in vivo, ip)?
A: Its MTD at 14 days is 160 mg/kg.

Q: What about the “Weight on day 1 after administration” value ([2]; mouse, in vivo, ip, 0.625 mg/kg) of the same compound?
A: The value was 7.3.

Q: And the “Weight on day 1 after administration” value ([2]; mouse, in vivo, ip, 5 mg/kg)?
A: Its value is 6.9.

Q: And the “Weight on day 1 after administration” value ([2]; mouse, in vivo, ip, 10 mg/kg)?
A: Its value is 6.5.

Q: And the “Weight on day 1 after administration” value ([2]; mouse, in vivo, ip, 20 mg/kg)?
A: The value was 7.5.

Q: And the “Weight on day 1 after administration” value ([2]; mouse, in vivo, ip, 40 mg/kg)?
A: The value was 7.7.

Q: And the “Weight on day 1 after administration” value ([2]; mouse, in vivo, ip, 80 mg/kg)?
A: Its value is 7.3.

Q: What about the “Weight on day 1 after administration” value ([2]; mouse, in vivo, ip, 100 mg/kg) of the same compound?
A: Its value is 7.3.

Q: And the “Weight on day 1 after administration” value ([2]; mouse, in vivo, ip, 160 mg/kg)?
A: The value was 6.3.

Q: What about the “Number of colonies TA100(−S9)” value ([3]; 8 μg/dish) of the same compound?
A: The value was 152.7 ± 9.4.

Q: What about the “Number of colonies TA100(+S9)” value ([3]; 8 μg/dish) of the same compound?
A: Its value is 159.3 ± 11.3.

Q: And the “Number of colonies TA100(−S9)” value ([3]; 40 μg/dish)?
A: The value was 141.8 ± 5.9.

Q: What about the “Number of colonies TA100(+S9)” value ([3]; 40 μg/dish) of the same compound?
A: The value was 158.7 ± 10.7.

Q: What about the “Number of colonies TA100(−S9)” value ([3]; 200 μg/dish) of the same compound?
A: Its value is 152.7 ± 9.5.

Q: And the “Number of colonies TA100(+S9)” value ([3]; 200 μg/dish)?
A: The value was 158.5 ± 11.5.

Q: What about the “Number of colonies TA100(−S9)” value ([3]; 1000 μg/dish) of the same compound?
A: The value was 113.0 ± 14.2.

Q: What about the “Number of colonies TA100(+S9)” value ([3]; 1000 μg/dish) of the same compound?
A: Its value is 127.7 ± 10.1.

Q: And the “Number of colonies TA100(−S9)” value ([3]; 5000 μg/dish)?
A: Its value is 110.5 ± 7.8.

Q: What about the “Number of colonies TA100(+S9)” value ([3]; 5000 μg/dish) of the same compound?
A: The value was 114.7 ± 3.8.

Q: What about the “mutagenic effect on TA100” value [3, 5] of the same compound?
A: The value was “negative”.

Q: And the “Number of colonies TA102(−S9)” value ([4]; 8 μg/dish)?
A: Its value is 223.0 ± 9.1.

Q: And the “Number of colonies TA102(+S9)” value ([4]; 8 μg/dish)?
A: Its value is 235.0 ± 9.6.

Q: What about the “Number of colonies TA102(−S9)” value ([4]; 40 μg/dish) of the same compound?
A: The value was 205.0 ± 14.6.

Q: What about the “Number of colonies TA102(+S9)” value ([4]; 40 μg/dish) of the same compound?
A: Its value is 222.5 ± 9.3.

Q: And the “Number of colonies TA102(−S9)” value ([4]; 200 μg/dish)?
A: Its value is 192.8 ± 18.6.

Q: What about the “Number of colonies TA102(+S9)” value ([4]; 200 μg/dish) of the same compound?
A: The value was 208.3 ± 6.8.

Q: And the “Number of colonies TA102(−S9)” value ([4]; 1000 μg/dish)?
A: The value was 182.3 ± 10.3.

Q: What about the “Number of colonies TA102(+S9)” value ([4]; 1000 μg/dish) of the same compound?
A: The value was 195.2 ± 8.6.

Q: And the “Number of colonies TA102(−S9)” value ([4]; 5000 μg/dish)?
A: Its value is 147.2 ± 20.3.

Q: And the “Number of colonies TA102(+S9)” value ([4]; 5000 μg/dish)?
A: Its value is 180.7 ± 11.7.

Q: And the “mutagenic effect on TA102” value [4, 5]?
A: The value was “negative”.

Q: With `O=C(COc1ccc(Br)cc1)OC1C(O)C=C2CCN3Cc4cc5c(cc4C1C23)OCO5` (stereo not shown) [Compound 7, 1-(4-bromo-phenoxyacetyl)-lycorine] as the compound, how does the EC50 (EV71) read?
A: Its EC50 is 1.47 µM.

Q: And the SI (EV71)?
A: The SI was 70.36.

Q: And the CC50 at 48 h [1]?
A: Its CC50 at 48 h is 103 µM.

Q: Which EC50 (EV71) does the source give for `O=C(COc1ccc([N+](=O)[O-])cc1)OC1C(O)C=C2CCN3Cc4cc5c(cc4C1C23)OCO5` (stereo not shown) [Compound 8, 1-(4-nitro-phenoxyacetyl)-lycorine] here?
A: Its EC50 is 1.23 µM.

Q: And the SI (EV71)?
A: The SI was 85.67.

Q: And the CC50 at 48 h [1]?
A: The CC50 at 48 h was 105 µM.

Q: Which EC50 (EV71) does the source give for `O=C(COc1ccc(I)cc1)OC1C(O)C=C2CCN3Cc4cc5c(cc4C1C23)OCO5` (stereo not shown) [Compound 9, 1-(4-iodo-phenoxyacetyl)-lycorine] here?
A: Its EC50 is 1.84 µM.

Q: And the SI (EV71)?
A: The SI was 54.15.

Q: What about the CC50 at 48 h [1] of the same compound?
A: The CC50 at 48 h was 99.6 µM.

Q: What does the source list for `CC(C)c1ccc(OCC(=O)OC2C(O)C=C3CCN4Cc5cc6c(cc5C2C34)OCO6)cc1` (stereo not shown) [Compound 10, 1-(4-isopropyl-phenoxyacetyl)-lycorine]?
A: EC50 (EV71): 1.67 µM; SI (EV71): 60.63; CC50 at 48 h [1]: 101 µM

Q: For `O=C(CSc1ccc(Cl)cc1)OC1C(O)C=C2CCN3Cc4cc5c(cc4C1C23)OCO5` (stereo not shown) [Compound 11, 1-(4-chloro-phenylthioacetyl)-lycorine], which EC50 (EV71) is on record?
A: The EC50 was 1.46 µM.

Q: What about the SI (EV71) of the same compound?
A: The SI was 89.40.

Q: What about the CC50 at 48 h [1] of the same compound?
A: The CC50 at 48 h was 131 µM.

Q: What does the source list for `Cc1ccc(OCC(=O)OC2C(O)C=C3CCN4Cc5cc6c(cc5C2C34)OCO6)cc1` (stereo not shown) [Compound 12, 1-(4-methylphenoxyacetyl)-lycorine]?
A: EC50 (EV71): 1.53 µM; SI (EV71): 87.73; CC50 at 48 h [1]: 134 µM
